Results reported in patent US11357229B2, “Composition, uses and preparation process thereof, as well as method to ensure high corn crop yield” (priority 2011, dated 2022).

Key:
Type in all cases: in vivo, Zea mays
corn [1] = experiment: Ethephon applied to corn at stage V8, Nova Mutum; methomyl and pyraclostrobin+epoxyconazole added in all treatments; details: V8, 5 g ha^−1 a.i.
Experimental: Example 1—Effect of Growth Regulator Ethephon Applied to Corn at the Stage of Development V8
(§1) In the moment of the application, the insecticide methomyl (215 g ha^−1 a.i.) and the fungicide pyraclostrobin+epoxyconazole (99.75+37.5 g ha^−1 a.i.) were added in all treatments, including the control.

corn [2] = experiment: Ethephon applied to corn at stage V6, Nova Mutum; chlorantraniliprole and cyproconazole+azoxystrobin added in all treatments; details: V6, 5 g ha^−1 a.i.
Experimental: Example 2—Effect of Growth Regulator Ethephon Applied to Corn at the Stage of Development V6
(§2) In the moment of the application, the insecticide chlorantraniliprole (25 g ha^−1 a.i.) and the fungicide cyproconazole+azoxystrobin (24+60 g ha^−1 a.i.) were added in all treatments, including the control.

corn [3] = experiment: BF 428-5 applied to corn at stage V8, Nova Mutum; methomyl and pyraclostrobin+epoxyconazole added in all treatments; details: for Increased Yield: 100,000 plants/ha vs control at normal density
Experimental: Example 5—Effect of Growth Regulator BF 428-5 Applied to Corn at the Stage of Development V8
as §1

corn [4] = experiment: BF 428-5 applied to corn at stage V6, Nova Mutum; chlorantraniliprole and cyproconazole+azoxystrobin added in all treatments; details: for Height (shoot length): 30 DAA; for Increased Yield: 100,000 plants/ha vs control at normal density
Experimental: Example 6—Effect of Growth Regulator BF 428-5 Applied to Corn at the Stage of Development V6
as §2

## CSC(=O)c1cccc2nnsc12 [Acybenzolar-S-methyl, acybenzolar-S-methyl]
Corn [1]
  Ear Diameter: 53.7 mm
  Ear Length: 26.5 cm
  Yield: 4815.6 kg/ha
Corn [1]; 30 DAA
  Height (shoot length): 206.8 cm
Corn [1]; 60,000 plants/ha
  Population of corn plants 60,000 plants/ha, kg/corn plant: 0.080 kg/corn plant
Corn [2]
  Ear Diameter: 34.7 mm
  Ear Length: 21.9 cm
  Yield: 2662.2 kg/ha
Corn [2]; 30 DAA
  Height (shoot length): 195.2 cm
Corn [2]; 60,000 plants/ha
  Population of corn plants 60,000 plants/ha, kg/corn plant: 0.044 kg/corn plant

## C[N+](C)(C)CCCl [BF 428-05, chlormequat chloride]
Corn [3]; V8
  effects on the corn plant: reduction in shoot length, increased formation of adventitious roots, strengthening of the stem, strengthening of the root system, increased ventilation in the culture, proper development of male and female inflorescences
Corn [3]; V8 (Table 9)
  effect on length and diameter of ears of corn: does not reduce
  yield reduction: no yield reduction
Corn [3]; V8, 30 DAA, all treatments with BF 428-5 (Table 9)
  shoot length: less than or equal to 218.8 cm
Corn [3]; V8, 42.5 g ha^−1 a.i.
  Ear Diameter: 54.3 mm
  Ear Length: 27.8 cm
  Yield: 5762.2 kg/ha
  Population of corn plants 60,000 plants/ha, kg/corn plant: 0.096 kg/corn plant
  Population of corn plants 100,000 plants/ha, kg/corn plant: 0.096 kg/corn plant
  Yield estimates 100,000 plants/ha: 9603.7 kg/ha
  Increased Yield: 89.2%
Corn [3]; V8, 42.5 g ha^−1 a.i., 30 DAA
  Height (shoot length): 214.6 cm
Corn [3]; V8, 85 g ha^−1 a.i.
  Ear Diameter: 53.9 mm
  Ear Length: 27.3 cm
  Yield: 4355.6 kg/ha
  Population of corn plants 60,000 plants/ha, kg/corn plant: 0.073 kg/corn plant
  Population of corn plants 100,000 plants/ha, kg/corn plant: 0.073 kg/corn plant
  Yield estimates 100,000 plants/ha: 7259.3 kg/ha
  Increased Yield: 43.0%
Corn [3]; V8, 85 g ha^−1 a.i., 30 DAA
  Height (shoot length): 218.8 cm
Corn [3]; V8, 127.5 g ha^−1 a.i.
  Ear Diameter: 54.2 mm
  Ear Length: 27.2 cm
  Yield: 4968.9 kg/ha
  Population of corn plants 60,000 plants/ha, kg/corn plant: 0.083 kg/corn plant
  Population of corn plants 100,000 plants/ha, kg/corn plant: 0.083 kg/corn plant
  Yield estimates 100,000 plants/ha: 8281.5 kg/ha
  Increased Yield: 63.2%
Corn [3]; V8, 127.5 g ha^−1 a.i., 30 DAA
  Height (shoot length): 217.8 cm
Corn [3]; V8, estimation at 100,000 plants per hectare vs control at normal density of sowing (Table 10)
  yield increases: more than 43%
Corn [4]; V6
  effects on the corn plant: reduction in shoot length, increased formation of adventitious roots, strengthening of the stem, strengthening of the root system, increased ventilation in the culture, proper development of male and female inflorescences
Corn [4]; V6 (Table 11)
  effect on length and diameter of ears of corn: does not reduce
  yield reduction: no yield reduction
Corn [4]; V6, 42.5 g ha^−1 a.i.
  Ear Diameter: 38.4 mm
  Ear Length: 23.9 cm
  Yield: 3126.7 kg/ha
  Height (shoot length): 206.0 cm
  Population of corn plants 60,000 plants/ha, kg/corn plant: 0.052 kg/corn plant
  Population of corn plants 100,000 plants/ha, kg/corn plant: 0.052 kg/corn plant
  Yield estimates 100,000 plants/ha: 5211.2 kg/ha
  Increased Yield: 80.5%
Corn [4]; V6, 85 g ha^−1 a.i.
  Ear Diameter: 37.0 mm
  Ear Length: 22.9 cm
  Yield: 1902.2 kg/ha
  Height (shoot length): 205.8 cm
  Population of corn plants 60,000 plants/ha, kg/corn plant: 0.032 kg/corn plant
  Population of corn plants 100,000 plants/ha, kg/corn plant: 0.032 kg/corn plant
  Yield estimates 100,000 plants/ha: 3170.3 kg/ha
  Increased Yield: 9.8%
Corn [4]; V6, 127.5 g ha^−1 a.i.
  Ear Diameter: 37.9 mm
  Ear Length: 21.5 cm
  Yield: 2500.0 kg/ha
  Height (shoot length): 200.3 cm
  Population of corn plants 60,000 plants/ha, kg/corn plant: 0.042 kg/corn plant
  Population of corn plants 100,000 plants/ha, kg/corn plant: 0.042 kg/corn plant
  Yield estimates 100,000 plants/ha: 4166.7 kg/ha
  Increased Yield: 44.3%
Corn [4]; V6, estimation at 100,000 plants per hectare vs control at normal density of sowing (Table 12)
  yield increases: more than 9.8%
